The text below walks through data of patent publication US8703811B2, “Small molecule inhibitors of Plasmodium falciparum dihydroorotate dehydrogenase” (Genzyme Corporation, priority 2008, dated 2014).

Values after ≈ are worked out from the molar mass of the structure shown. Read-outs that look alike come from different tables or passages of the source.

The test system of series [1] is Normal Human Dermal Fibroblasts. Nature of the series: Normal Human Dermal Fibroblast Toxicity Screen. In kind it is cell-based. Put shortly: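 Fibroblasts seeded at 0.25 to 0.3×10^5 cells/mL, allowed 24 h at 37° C./5% CO2, then exposed to compounds for 96 hours. Viability read as Alamar Blue fluorescence after 3 h, with a T=0 plate, Tween 20 as positive control and DMSO as negative control.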

Series [2] has as its system Renal Proximal Tubule Epithelial Cells. Nature of the series: Renal Proximal Tubule Epithelial Cell Toxicity Screen. The series is classed as cell-based. Put shortly: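 Normal renal epithelial cells seeded at 1.5×10^4 cells/mL, grown 24 h at 37 °C/5% CO2, then exposed to compounds for 96 h; a T=0 plate was read at dosing. Viability by Alamar Blue fluorescence after 4 h, with Tween 20 and DMSO wells as positive and negative controls.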

Another series in a line: Solubility measurement. The series is classed as physicochemical. The text has this:
Many standard techniques are known in the art to establish the solubility of a compound in a particular solvent. The following description is one such technique that could be used to determine the solubility: Equilibrium solubility measurements start with the solid form of the compound (crystalline form preferred). The powder is physically mixed with an aqueous buffer (defined pH) until equilibrium is reached. Either centrifugation or filtration can be used to separate the solution from the remaining solid. The amount dissolved in the solution can be determined by any one of many known methods including HPLC or UV/Vis spectroscopic techniques.

The next series can be described thus: Permeability. In kind it is in vitro ADME. Conditions: for Papp: Caco-2. Here is the method:
Permeability assays using the Caco-2 colon carcinoma cell line are being used throughout the pharmaceutical industry to estimate the ability of potential drug compounds to cross the intestinal epithelium. Caco-2 cell permeability studies are performed using Caco-2 cell monolayers grown on microporous membranes in multiwell insert systems. With the inserts suspended in the wells of multiwell plates, test compounds can be added to either the upper (apical) or lower (basolateral) chamber to measure permeability in the absorptive (apical to basolateral) or secretive (basolateral to apical) directions. Samples are then taken from the opposite chamber at various time intervals to measure the amount of test compound that has crossed the cell monolayer. A representative method to generate permeability data similar to that in Table 3 can be found in Alsenz, J; Haenel, E. “Development of a 7-Day, 96-Well Caco-2 Permeability Assay with High-Throughput Direct UV Compound Analysis.” Pharmaceutical Research 2003 20(12): p 1961-1969.
Parallel artificial membrane permeability assay (PAMPA) utilizes a simple phospholipid-coated filter disc to measure membrane permeability. It was developed as an alternative to the low throughput. Caco-2 cell permeability assay used to correlate passive permeability with in vivo oral absorption. A representative publication disclosing this method is Kerns, E H; Di, L; Petusky, S; Farris, M; Ley, R; Jupp, P. “Combined application of parallel artificial membrane permeability assay and Caco-2 permeability assays in drug discovery.” J. Pharma Sci. 2004, 93 (6), pages 1440-53.
Cell culture methods (e.g. Caco-2, HT-29 and MDC) and physicochemical methods such as PAMPA and immobilized artificial membrane (IAM) columns are known in the art and can be used to obtain data such as that in Table 3. Hidalgo, I J; “Assessing the absorption of new pharmaceuticals.” Curr Top Med. Chem. 2001 November; 1(5): p 385-401.
Background: Passage across Caco-2 layers is used to estimate intestinal permeability.

The target in another series is Cytochrome P450 2C9 (Homo sapiens (Human), UniProt P11712). Nature of the series: Cytochrome P450 inhibition, 2C9. In kind it is in vitro ADME. The text has this:
(§1) Rapid screening for cytochrome P450 inhibitors is part of the current paradigm for avoiding development of drugs likely to give clinical pharmacokinetic drug-drug interactions and associated toxicities. There are commercially available assays for such screenings. For example, BD Biosciences (http://www.bdbiosciences.com/index.shtml) provides a technical bulletin describing a detailed, step-by-step procedure for the performance of the high throughput cytochrome P450 inhibition testing method.

The next series deals with Cytochrome P450 1A2 (Homo sapiens (Human), UniProt P05177). The series is classed as in vitro ADME.
From the text: as §1

Another series can be described thus: Hepatic clearance, human. In kind it is in vitro ADME. An excerpt:
(§2) Clearance of drug by the liver will depend on the rate of delivery of drug to the liver (the hepatic blood flow) and on the efficiency of removal of drug which is presented to it (the extraction ratio). The hepatic clearance of compounds can be determined by standard methods known in the art. Such methods are described in, for example, Naritomi, Y; Terashita, S; Kagayama, A; Sugiyama, Y. “Utility of Hepatocytes in Predicting Drug Metabolism: Comparison of Hepatic Intrinsic Clearance in Rats and Humans in Vivo and in Vitro.” 2003, 31 (5): pages 580-588.

The next series in a line: Hepatic clearance, rat. The series is classed as in vitro ADME.
From the text: as §2

The next series addresses Cytochrome P450 3A4 (Homo sapiens (Human), UniProt P08684). Nature of the series: Cytochrome P450 inhibition, 3A4. In kind it is in vitro ADME.
From the text: as §1

In a further series the target is Cytochrome P450 2C19 (Homo sapiens (Human), UniProt P33261). Kind of series: Cytochrome P450 inhibition, 2C19. The series is classed as in vitro ADME.
From the text: as §1

The target of the next series is Cytochrome P450 2D6 (Homo sapiens (Human), UniProt P10635). Nature of the series: Cytochrome P450 inhibition, 2D6. In kind it is in vitro ADME.
From the text: as §1

[3] abbreviates: aqueous buffer, thermodynamic from solid, read-out: Solubility.

Sequence of Cytochrome P450 2C19 (P33261 whole entry): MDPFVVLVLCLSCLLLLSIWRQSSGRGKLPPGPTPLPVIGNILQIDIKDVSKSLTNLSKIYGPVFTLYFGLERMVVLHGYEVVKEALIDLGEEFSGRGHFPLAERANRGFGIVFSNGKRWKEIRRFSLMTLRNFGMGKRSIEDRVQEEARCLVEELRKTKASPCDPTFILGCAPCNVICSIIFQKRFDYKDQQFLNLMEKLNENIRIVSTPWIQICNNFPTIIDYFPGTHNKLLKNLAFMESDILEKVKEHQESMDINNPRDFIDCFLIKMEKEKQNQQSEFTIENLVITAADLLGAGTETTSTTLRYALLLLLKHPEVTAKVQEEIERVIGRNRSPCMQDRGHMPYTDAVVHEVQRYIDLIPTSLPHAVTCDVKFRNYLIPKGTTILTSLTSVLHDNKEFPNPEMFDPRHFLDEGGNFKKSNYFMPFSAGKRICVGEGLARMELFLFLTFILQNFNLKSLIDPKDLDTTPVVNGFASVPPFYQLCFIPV
Sequence of Cytochrome P450 3A4 (P08684 whole entry): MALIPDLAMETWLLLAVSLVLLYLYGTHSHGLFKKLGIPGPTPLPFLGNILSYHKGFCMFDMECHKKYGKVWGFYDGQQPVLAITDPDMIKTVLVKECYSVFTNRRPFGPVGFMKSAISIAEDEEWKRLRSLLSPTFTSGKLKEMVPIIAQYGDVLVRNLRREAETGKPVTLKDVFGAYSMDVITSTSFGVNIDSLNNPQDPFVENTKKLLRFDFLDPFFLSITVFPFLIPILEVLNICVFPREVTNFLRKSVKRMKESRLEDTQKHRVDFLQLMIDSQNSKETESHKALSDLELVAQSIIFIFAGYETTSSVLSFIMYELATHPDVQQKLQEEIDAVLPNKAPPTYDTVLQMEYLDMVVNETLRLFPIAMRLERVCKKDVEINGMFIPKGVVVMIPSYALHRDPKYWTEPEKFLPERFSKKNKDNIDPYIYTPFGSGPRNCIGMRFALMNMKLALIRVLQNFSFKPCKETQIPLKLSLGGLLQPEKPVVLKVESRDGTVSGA
Sequence of Cytochrome P450 2D6 (P10635 whole entry): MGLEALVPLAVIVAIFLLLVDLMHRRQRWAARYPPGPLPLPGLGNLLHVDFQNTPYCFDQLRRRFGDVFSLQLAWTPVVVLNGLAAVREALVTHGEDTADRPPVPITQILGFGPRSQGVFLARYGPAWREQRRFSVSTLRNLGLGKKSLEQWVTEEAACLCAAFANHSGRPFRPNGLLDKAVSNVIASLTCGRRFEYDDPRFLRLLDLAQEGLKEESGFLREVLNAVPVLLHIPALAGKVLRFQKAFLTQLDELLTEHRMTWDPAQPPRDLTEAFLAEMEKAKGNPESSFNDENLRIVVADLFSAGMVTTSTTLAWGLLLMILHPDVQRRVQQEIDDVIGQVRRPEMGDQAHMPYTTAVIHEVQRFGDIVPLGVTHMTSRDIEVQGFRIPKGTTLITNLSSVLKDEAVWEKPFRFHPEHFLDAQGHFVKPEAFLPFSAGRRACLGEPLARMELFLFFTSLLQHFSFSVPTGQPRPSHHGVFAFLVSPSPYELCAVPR
Sequence of Cytochrome P450 2C9 (P11712 whole entry): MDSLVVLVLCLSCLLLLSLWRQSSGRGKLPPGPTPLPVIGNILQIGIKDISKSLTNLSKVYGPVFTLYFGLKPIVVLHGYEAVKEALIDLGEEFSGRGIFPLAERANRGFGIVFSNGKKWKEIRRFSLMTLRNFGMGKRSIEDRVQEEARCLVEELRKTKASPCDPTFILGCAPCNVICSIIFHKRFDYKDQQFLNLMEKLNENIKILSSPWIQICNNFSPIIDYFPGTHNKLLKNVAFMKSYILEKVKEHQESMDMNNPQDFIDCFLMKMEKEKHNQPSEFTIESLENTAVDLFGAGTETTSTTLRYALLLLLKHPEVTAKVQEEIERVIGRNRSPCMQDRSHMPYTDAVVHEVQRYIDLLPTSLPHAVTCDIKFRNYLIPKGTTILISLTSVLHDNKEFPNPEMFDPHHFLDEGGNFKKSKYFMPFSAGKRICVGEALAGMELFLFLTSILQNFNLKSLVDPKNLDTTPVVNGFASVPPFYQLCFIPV
Sequence of Cytochrome P450 1A2 (P05177 whole entry): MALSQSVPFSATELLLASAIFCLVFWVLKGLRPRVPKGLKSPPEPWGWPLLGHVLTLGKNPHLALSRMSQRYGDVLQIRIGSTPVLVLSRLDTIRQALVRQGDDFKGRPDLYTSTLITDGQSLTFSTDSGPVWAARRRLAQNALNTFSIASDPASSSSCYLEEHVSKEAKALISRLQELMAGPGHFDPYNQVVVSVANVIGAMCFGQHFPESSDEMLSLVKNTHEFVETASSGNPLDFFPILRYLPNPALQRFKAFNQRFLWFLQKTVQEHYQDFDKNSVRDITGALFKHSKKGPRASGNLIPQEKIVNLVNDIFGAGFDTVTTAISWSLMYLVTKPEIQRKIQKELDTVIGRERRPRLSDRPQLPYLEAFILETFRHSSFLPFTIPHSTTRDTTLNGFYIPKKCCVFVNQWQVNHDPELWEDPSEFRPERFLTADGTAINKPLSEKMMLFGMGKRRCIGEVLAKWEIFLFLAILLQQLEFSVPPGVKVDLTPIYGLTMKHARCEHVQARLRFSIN

By solubility is commonly meant the dissolved amount per volume that the medium holds. As to “5-(1H-indol-1-yl)-N-propylthiophene-2-carboxamide [Compound 7]”, the CC50 in series [1] (four days exposure, Alamar Blue, read-out: Dermal Fibroblast LC50) was 50 µM; in series [2] (4 days exposure, Alamar Blue, read-out: Kidney Epithelial LC50) it was 50 µM. For the same compound, the solubility in “Solubility measurement” stood at 1 µg/mL. The compound further registered a Permeability in the series “Permeability” of 52 cm/sec × 10^−6.
Take `CCCNC(=O)c1ccc(-n2c(C)cc3ccccc32)s1` [Compound 1, 5-(2-methyl-1H-indol-1-yl)-N-propylthiophene-2-carboxamide]: in the series “Solubility measurement” (setting [3]), the solubility amounted to 0.9 µg/mL (≈ 3.02 µM).
The term microsomal CLint denotes a measure of how fast metabolising enzymes remove a compound, apart from limits set by blood flow. Low readings indicate greater metabolic stability, high ones faster metabolism. Usually Papp stands for a coefficient for how fast a substance crosses the barrier. In the case of `CCCNC(=O)c1ccc(-n2cnc3ccccc32)s1` [Compound 11, 5-(1H-benzo[d]imidazol-1-yl)-N-propylthiophene-2-carboxamide], on Cytochrome P450 2C9, the “Cytochrome P450 Inhibition, 2C9” value was greater than 5.0 in 2C9 μM. Moreover, the “Cytochrome P450 Inhibition, 1A2” value on Cytochrome P450 1A2 was greater than 5.0 in 1A2 μM. For the same compound, the microsomal CLint in the series “Hepatic clearance, human” was 49 µL/min/mg; in “Hepatic clearance, rat” it was greater than 119 µL/min/mg. The “Cytochrome P450 Inhibition, 3A4” value on Cytochrome P450 3A4 is greater than 5.0 in 3A4 μM. Further, the “Cytochrome P450 Inhibition, 2C19” value on Cytochrome P450 2C19 is greater than 5.0 in 2C19 μM. In addition, the “Cytochrome P450 Inhibition, 2D6” value on Cytochrome P450 2D6 is greater than 5.0 in 2D6 μM. For the same compound, in “Solubility measurement” (setting [3]), the solubility was greater than 30 µg/mL. In “Permeability”, this compound showed a Papp of 32 ×10⁻⁶ cm/s.
Consider `CCCNC(=O)c1ccc(-n2c(C)nc3ccccc32)s1` [Compound 12, 5-(2-methyl-1H-benzo[d]imidazol-1-yl)-N-propylthiophene-2-carboxamide], for which the “Cytochrome P450 Inhibition, 2C9” value at Cytochrome P450 2C9 is on record as greater than 5.0 in 2C9 μM. The “cytotoxicity in dermal fibroblasts” value in series [1] is “No adverse cytotoxicity”. Further, at Cytochrome P450 1A2, the “Cytochrome P450 Inhibition, 1A2” value is given as greater than 5.0 in 1A2 μM. The intrinsic clearance (microsomal CLint) in the series “Hepatic clearance, human” is 33 µL/min/mg; in “Hepatic clearance, rat” it was 102 µL/min/mg. For the same compound, at Cytochrome P450 3A4, the “Cytochrome P450 Inhibition, 3A4” value is on record as greater than 5.0 in 3A4 μM. In addition, the “cytotoxicity in kidney epithelial cells” value in [2] is recorded as “No adverse cytotoxicity”. Further, the “Cytochrome P450 Inhibition, 2C19” value at Cytochrome P450 2C19 is greater than 5.0 in 2C19 μM. Further, at Cytochrome P450 2D6, the “Cytochrome P450 Inhibition, 2D6” value is on record as greater than 5.0 in 2D6 μM. In addition, the solubility in “Solubility measurement” (setting [3]) is greater than 30 µg/mL. In the series “Permeability”, this compound registered a Papp of 65 ×10⁻⁶ cm/s.
